Patent US7785611B2, “Parenteral vaccine formulations and uses thereof” (ALK-Abello A/S, priority 2000, dated 2010)

How the values were obtained:
[1] = tested on: TT-specific antibodies of the IgG class; parameters: species or system BALB/Ca mice; settings: mouse, in vivo, sc
Protocol: (§1) Tetanus toxoid (TT) containing 3.0 mg protein/ml, (obtained from Statens Serum Institut, DK-2300 Copenhagen S, Denmark).
(§2) Prepared from Mg(OH)2 gel (Reheis, USA). • Magnesium carbonate hydroxide pentahydrate, (MgCO3)4Mg(OH)25H2O, 0.05 M Mg^2+. […] Preparation of the Vaccine Formulations: […]
(§3) TT was dissolved or diluted to a concentration 10 times that of the concentration in the final vaccine formulation. The adjuvant was dissolved or diluted to a concentration five times that of the concentration in the final vaccine formulation, with regard to the cation. 1 volume TT solution was slowly mixed with 2 volumes adjuvant, and left stirring over night at 4° C. The following day 7 volumes Coca 0.0 buffer (0.25% sodium hydrogen carbonate and 0.5% sodium chloride) was slowly added. The adjuvant free vaccine was prepared as above, with the modification that the adjuvant was substituted with Coca 0.0 buffer. […]
(§4) Blood samples were drawn from the retro orbital vein every 7 days, starting on day 0. Serum was separated from the blood sample, and stored at −20° C., until analysed.
(§5) Serum samples were analysed for the presence of TT-specific immune response by means of a direct enzyme linked immunosorbent assay (ELISA), measuring TT-specific antibodies of the IgG class. […]
(§6) Bound antibodies were detected by serial incubations of the plate with a biotinylated, polyclonal antiserum to mouse IgG (obtained from Jackson Laboratories, Bar Harbour, Me., USA) followed by a streptavidine-horseradish peroxidase conjugate (obtained from DAKO A/S, Glostrup, Denmark). The plates were developed for 20 minutes with 100 μl readymade TMB substrate (Kem-En-Tech, Denmark) per well, and the reaction as stopped with an equal volume of 1M H2SO4.
(§7) The developed colour reaction was measured as absorption at 450 nm. […]
(§8) The strength of the TT-specific antibody response in each serum sample was measured as an arbitrary titre, determined as the serum dilution giving an absorption signal equal to 50% of that obtained with a 3000 fold dilution of the TT-specific monoclonal antibody. […]

[2] = tested on: TT-specific antibodies of the IgG class; parameters: species or system BALB/Ca mice; settings: mouse, in vivo
Protocol: as §1, §2, §3, §4, §5, §6, §7, §8

[3] = current use as antacid, laxative, topical or cosmetic; cited from earlier work
[4] = magnesium hydroxide alone; cited from earlier work

[Mg+2].[OH-].[OH-] [magnesium hydroxide, Magnesium hydroxide]
potency at inducing TT-specific antibodies compared with vaccine formulation containing Al(OH)3 [1]: more potent | onset of specific immune response compared with Al(OH)3 formulation [2]: earlier onset | Dose (recommended maximum dose) [3]: 0.5 g per kg bodyweight | adsorbent activity [4]: low

Magnesium carbonate hydroxide pentahydrate [magnesium carbonate pentahydrate]
potency at inducing TT-specific antibodies compared with vaccine formulation containing Al(OH)3 [1]: more potent | onset of specific immune response compared with Al(OH)3 formulation [2]: earlier onset | Dose (recommended maximum dose) [3]: 0.5 g per kg bodyweight

Titanium dioxide
potency at inducing TT-specific antibodies compared with vaccine formulation containing Al(OH)3 [1]: more potent | onset of specific immune response compared with Al(OH)3 formulation [2]: earlier onset | Dose (recommended maximum dose) [3]: 1.0 g per kg bodyweight
